Measured values taken from article PMC5766998, “Determination of the native features of the exoglucanase Cel48S from Clostridium thermocellum” (Biotechnology for Biofuels, 2018).

Molecular target: T1, ctCel48S_CD (Acetivibrio thermocellus, UniProt C7ED31)
T1 construct: GH48 catalytic domain, dockerin removed by inserted stop codon; C-terminal Gly5 linker and His12 tag kept; purified from culture supernatant of C. thermocellum DSM1313 (secreted); monomer
Experiment: reducing sugars released, HPLC
Type: biochemical
Conditions: 1% (wt/vol) substrate, 50 mM succinate pH 5.7, 10 mM CaCl2, 55 °C, 5 h

T1 sequence (C7ED31 entry or part of it): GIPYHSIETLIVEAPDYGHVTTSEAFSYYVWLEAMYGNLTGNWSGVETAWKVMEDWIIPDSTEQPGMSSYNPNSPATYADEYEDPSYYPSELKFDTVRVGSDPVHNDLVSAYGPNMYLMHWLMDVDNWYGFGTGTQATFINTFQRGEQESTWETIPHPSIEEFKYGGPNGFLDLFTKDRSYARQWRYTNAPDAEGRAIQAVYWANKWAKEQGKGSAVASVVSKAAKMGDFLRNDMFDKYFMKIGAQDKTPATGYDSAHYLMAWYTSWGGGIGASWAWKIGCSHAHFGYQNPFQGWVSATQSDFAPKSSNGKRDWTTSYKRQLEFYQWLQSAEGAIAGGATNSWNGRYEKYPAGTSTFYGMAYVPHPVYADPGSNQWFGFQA

Row | SMILES | reducing sugars released, HPLC
1 | OC[C@H]1O[C@@H](O[C@H]2[C@H](O)[C@@H](O)[C@H](O[C@H]3[C@H](O)[C@@H](O)[C@H](O[C@H]4[C@H](O)[C@@H](O)[C@H](O[C@H]5[C@H](O)[C@@H](O)C(O)O[C@@H]5CO)O[C@@H]4CO)O[C@@H]3CO)O[C@@H]2CO)[C@H](O)[C@@H](O)[C@@H]1O (some centres unmarked) [cellopentose] | ctCel48S_CD could also hydrolyze cellopentose and cellotetrose
2 | OC[C@H]1O[C@@H](O[C@H]2[C@H](O)[C@@H](O)[C@H](O[C@H]3[C@H](O)[C@@H](O)[C@H](O[C@H]4[C@H](O)[C@@H](O)C(O)O[C@@H]4CO)O[C@@H]3CO)O[C@@H]2CO)[C@H](O)[C@@H](O)[C@@H]1O (some centres unmarked) [cellotetrose] | ctCel48S_CD could also hydrolyze cellopentose and cellotetrose
